US7998961B2, “Hydantoin derivatives useful as antibacterial agents” (Schering Corporation, priority 2006, dated 2011)
pIC50: −log10 of the molar value. Where two headings read alike, the source gives them in different places.

Molecular target: T1, LpxC enzyme (Escherichia coli, UniProt P0A725)
T1 sequence (P0A725 1-305): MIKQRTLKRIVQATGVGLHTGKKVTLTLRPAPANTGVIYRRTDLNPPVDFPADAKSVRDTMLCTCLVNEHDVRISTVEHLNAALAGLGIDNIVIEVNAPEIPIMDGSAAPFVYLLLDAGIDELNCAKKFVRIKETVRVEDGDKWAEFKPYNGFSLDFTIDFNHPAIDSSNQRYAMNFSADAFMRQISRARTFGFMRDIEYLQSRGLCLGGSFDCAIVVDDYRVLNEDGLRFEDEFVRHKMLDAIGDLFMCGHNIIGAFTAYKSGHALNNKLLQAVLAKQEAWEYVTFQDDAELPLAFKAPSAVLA
Assay: standard LpxC enzyme assay (RapidFire high-throughput mass spectrometry)
Type: biochemical
Conditions: for inhibition at 25 µg/mL: compound at 25 ug/mL; for pIC50: LpxC inhibitory activity
Procedure: The standard LpxC assay consists of 0.2 nM LpxC enzyme, 1.0 μM UDP-3-O—(R-3-hydroxymyristoyl)-N-acetylglucosamine, and test compound, in assay buffer and 2% DMSO. Assay buffer is comprised of 25 mM HEPES, pH 7.3, 150 mM NaCl, 2.0 mM DTT, and 0.01% BSA. The enzyme reaction is carried out in a 96-well assay plate, in a final volume of 102 μL. Solutions of test compounds are prepared in 100% DMSO. Reaction additions, in order, are (1) 2.0 μL compound solution, (2) 80 μL of assay buffer, (3) 10 μL of 10 μM UDP-3-O—(R-3-hydroxymyristoyl)-N-acetylglucosamine (in assay buffer) and, (4) 10 μL of LpxC enzyme (20 nM in assay buffer) to initiate the reaction. In positive control reactions, addition (1) has 2.0 μL of 100% DMSO (without compound); these reactions are used as the total signal (TSB) value. Reactions are incubated at room temperature for 60 minutes when 10 μL of 1 N HCl is added to stop the reaction. The plate is shaken by hand for 10 seconds to ensure complete quenching. Assay plates are sealed with foil tape, and stored at −80° C. for 24-48 hr prior to analysis.
The concentrations of substrate and product in the reaction mixtures are determined with BioTrove's proprietary RapidFire™ high-throughput mass spectrometry (HTMS). Assay mixtures are partially purified with reverse phase chromatography, where they are washed with water containing 5 mM ammonium formate and eluted onto the mass spectrometer in 80% acetonitrile, 20% water, and 5 mM ammonium formate. The mass spectrometry peak areas of the substrate and product are measured to determine the concentration of these analytes. The assay signal is the percentage of substrate that is converted to product. Percent inhibition, % I, in test samples is determined from the following equation: […]

[1] = read-out: LpxC enzyme assay rating (% inhibition at indicated concentrations of 100 and 25 ug/mL): 25
[2] = compound at 100 ug/mL, read-out: LpxC enzyme assay rating (% inhibition at indicated concentrations of 100 and 25 ug/mL): 100
[3] = read-out: Numerical LpxC inhibitory activity (% inhibition): 100

Structure (SMILES)	pIC50 (read-out: IC50 rating)	further results
CC1(CC(=O)Nc2ccccc2C#Cc2ccccc2)NC(=O)NC1=O (centres unmarked) [Compound 32]	–	inhibition at 25 µg/mL [1]: < 10%
CC1(CC(=O)Nc2ccc(C#Cc3ccccc3)cc2)NC(=O)NC1=O (centres unmarked) [Compound 33]	< 5.30	–
CC1(CC(=O)NCCc2ccc(C#Cc3ccccc3)cc2)NC(=O)NC1=O (centres unmarked) [Compound 34]	–	inhibition at 25 µg/mL [1]: 10 to 30%; inhibition at 25 µg/mL (read-out: Numerical LpxC inhibitory activity (% inhibition): 25): 30%
CC1(CC(=O)NCCc2cccc(C#Cc3ccccc3)c2)NC(=O)NC1=O (centres unmarked) [Compound 35]	–	inhibition at 25 µg/mL [1]: < 10%
CC1(CC(=O)N2CCC(c3ccc(C#Cc4ccccc4)cc3)CC2)NC(=O)NC1=O (centres unmarked) [Compound 36]	6.00 to 6.60	pIC50 (read-out: IC50 values): 6.22
CC1(CC(=O)N2CCCC(c3ccc(C#Cc4ccccc4)cc3)C2)NC(=O)NC1=O (centres unmarked) [Compound 37]	6.00 to 6.60	–
CC1(CC(=O)N2CCC(O)(c3ccc(C#Cc4ccccc4)cc3)CC2)NC(=O)NC1=O (centres unmarked) [Compound 38]	5.30 to 6.00	–
CC1(CC(=O)N2CCN(c3ccc(C#Cc4ccccc4)cc3)CC2)NC(=O)NC1=O (centres unmarked) [Compound 39]	6.00 to 6.60	pIC50 (read-out: IC50 values): 6.30
C[C@@H](NC(=O)CC1(C)NC(=O)NC1=O)c1ccc(C#Cc2ccccc2)cc1 (some centres unmarked) [Compound 40]	< 5.30	–
O=C1NC(=O)C(CC(=O)N2CCC(c3ccc(C#Cc4ccccc4)cc3)CC2)N1 (centres unmarked) [Compound 41]	–	inhibition at 100 µg/mL [2]: > 30%; inhibition at 100 µg/mL [3]: 60%
O=C1NC(=O)C(CC(=O)N2CCN(c3ccc(C#Cc4ccccc4)cc3)CC2)N1 (centres unmarked) [Compound 42]	–	inhibition at 100 µg/mL [2]: > 30%
CCC1(CC(=O)N2CCC(c3ccc(C#Cc4ccccc4)cc3)CC2)NC(=O)NC1=O (centres unmarked) [Compound 43]	6.00 to 6.60	pIC50 (read-out: IC50 values): 6.15
O=C1NC(=O)C(CC(=O)N2CCC(c3ccc(Br)cc3)CC2)N1 (centres unmarked) [Compound 45]	–	inhibition at 100 µg/mL [2]: > 30%; inhibition at 100 µg/mL [3]: 68%
CC1(CC(=O)N2CCC(c3ccc(Br)cc3)CC2)NC(=O)NC1=O (centres unmarked) [Compound 46]	–	inhibition at 100 µg/mL [2]: > 30%
CCC1(CC(=O)N2CCC(c3ccc(Br)cc3)CC2)NC(=O)NC1=O (centres unmarked) [Compound 47]	–	inhibition at 100 µg/mL [2]: > 30%
C[C@@H](O)[C@H](NC(=O)c1ccc(C#Cc2ccccc2)cc1)C1NC(=O)NC1=O (some centres unmarked) [Compound 64]	< 5.30	–
C[C@H](O)[C@@H](NC(=O)c1ccc(C#Cc2ccccc2)cc1)C1NC(=O)NC1=O (some centres unmarked) [Compound 65]	< 5.30	–
CC1(CNC(=O)c2ccc(C#Cc3ccccc3)cc2)NC(=O)NC1=O (centres unmarked) [Compound 66]	< 5.30	–
C#Cc1ccc(C2CCN(C(=O)CC3(C)NC(=O)NC3=O)CC2)cc1 (centres unmarked) [Compound 75]	< 5.30	–
CCc1ccc(C2CCN(C(=O)CC3(C)NC(=O)NC3=O)CC2)cc1 (centres unmarked) [Compound 76]	< 5.30	–
CC1(CC(=O)N2CCC(c3ccc(CCN4CCOCC4)cc3)CC2)NC(=O)NC1=O (centres unmarked) [Compound 77]	< 5.30	–
CC1(CC(=O)N2CCC(c3ccc(-c4ccccc4)cc3)CC2)NC(=O)NC1=O (centres unmarked) [Compound 78]	< 5.30	–
CC1(CC(=O)N2CCC(c3ccc(-c4ccncc4)cc3)CC2)NC(=O)NC1=O (centres unmarked) [Compound 79]	< 5.30	–
